# Tests used:
# [1] = molecular target: Integrin alpha-IIb/beta-3 (Homo sapiens, UniProt P08514+P05106); experiment: Inhibition of platelet aggregation induced by 20 uM adenosine 5'-diphosphate (ADP) in human platelet rich plasma (h-PRP).
# [2] = Inhibition of 20 uM ADP-induced platelet aggregation in human platelet-rich plasma
# Chain of Integrin alpha-IIb/beta-3 (P05106 27-788 limits assumed): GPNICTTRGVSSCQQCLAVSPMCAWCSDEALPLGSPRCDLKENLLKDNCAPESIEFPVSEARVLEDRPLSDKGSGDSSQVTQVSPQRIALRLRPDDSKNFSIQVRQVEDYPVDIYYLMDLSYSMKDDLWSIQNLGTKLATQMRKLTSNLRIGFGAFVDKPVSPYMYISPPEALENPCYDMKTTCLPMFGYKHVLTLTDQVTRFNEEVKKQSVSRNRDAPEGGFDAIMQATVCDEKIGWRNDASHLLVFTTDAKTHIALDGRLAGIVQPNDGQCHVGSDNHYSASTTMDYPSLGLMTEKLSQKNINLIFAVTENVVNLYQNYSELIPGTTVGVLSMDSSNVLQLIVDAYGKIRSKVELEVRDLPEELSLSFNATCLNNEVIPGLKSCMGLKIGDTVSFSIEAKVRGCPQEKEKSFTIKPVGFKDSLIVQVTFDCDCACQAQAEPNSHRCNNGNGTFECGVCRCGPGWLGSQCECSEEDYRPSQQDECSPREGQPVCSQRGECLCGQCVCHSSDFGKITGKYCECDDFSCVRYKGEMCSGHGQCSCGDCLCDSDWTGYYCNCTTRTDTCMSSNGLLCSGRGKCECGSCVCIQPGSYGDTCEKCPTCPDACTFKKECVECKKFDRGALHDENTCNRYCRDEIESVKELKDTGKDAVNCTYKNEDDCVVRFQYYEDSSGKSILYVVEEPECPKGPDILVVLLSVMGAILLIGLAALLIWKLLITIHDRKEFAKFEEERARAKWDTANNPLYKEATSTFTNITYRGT
# Chain of Integrin alpha-IIb/beta-3 (P08514 32-887 limits assumed): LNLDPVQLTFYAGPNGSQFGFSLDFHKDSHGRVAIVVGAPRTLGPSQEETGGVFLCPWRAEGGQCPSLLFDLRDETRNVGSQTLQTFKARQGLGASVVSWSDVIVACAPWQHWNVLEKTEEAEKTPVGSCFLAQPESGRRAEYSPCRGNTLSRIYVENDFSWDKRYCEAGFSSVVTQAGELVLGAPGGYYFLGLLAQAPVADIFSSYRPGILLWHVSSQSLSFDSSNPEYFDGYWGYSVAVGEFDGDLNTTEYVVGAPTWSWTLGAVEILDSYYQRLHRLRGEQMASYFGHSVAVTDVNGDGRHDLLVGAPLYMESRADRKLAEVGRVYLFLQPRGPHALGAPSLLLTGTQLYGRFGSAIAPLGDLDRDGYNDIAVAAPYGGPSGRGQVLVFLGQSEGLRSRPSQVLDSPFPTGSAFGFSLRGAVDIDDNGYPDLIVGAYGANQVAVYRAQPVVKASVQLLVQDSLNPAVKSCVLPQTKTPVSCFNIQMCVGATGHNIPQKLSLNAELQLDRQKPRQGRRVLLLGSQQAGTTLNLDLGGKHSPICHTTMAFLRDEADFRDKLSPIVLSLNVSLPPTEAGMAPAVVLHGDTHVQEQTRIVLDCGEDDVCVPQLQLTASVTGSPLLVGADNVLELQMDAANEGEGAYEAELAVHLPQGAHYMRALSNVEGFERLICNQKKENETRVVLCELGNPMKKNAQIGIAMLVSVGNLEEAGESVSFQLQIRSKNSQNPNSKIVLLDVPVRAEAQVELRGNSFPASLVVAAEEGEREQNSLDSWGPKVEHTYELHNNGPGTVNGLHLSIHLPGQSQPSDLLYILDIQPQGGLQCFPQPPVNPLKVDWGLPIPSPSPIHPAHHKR
# Chain of Integrin alpha-IIb/beta-3 (P08514 891-1039 limits assumed): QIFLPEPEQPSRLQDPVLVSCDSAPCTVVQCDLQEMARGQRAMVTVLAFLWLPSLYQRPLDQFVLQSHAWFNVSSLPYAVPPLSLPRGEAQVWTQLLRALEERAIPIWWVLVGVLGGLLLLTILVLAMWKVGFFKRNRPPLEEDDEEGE
SMILES,IC50 [1] [nM],IC50 [2] [nM]
CC(C)(NC(=O)c1cc2cc(C(=N)N)ccc2[nH]1)C(=O)NC(CC(=O)O)c1ccccc1 (configuration not stated) [3-{2-[(5-Carbamimidoyl-1H-indole-2-carbonyl)-amino]-2-methyl-propionylamino}-3-phenyl-propionic acid],250000,
N=C(N)c1ccc2[nH]c(C(=O)NCC(=O)NC(CC(=O)O)c3ccccc3)cc2c1 (configuration not stated) [3-{2-[(5-Carbamimidoyl-1H-indole-2-carbonyl)-amino]-acetylamino}-3-phenyl-propionic acid],50000,
CN(CC(=O)NC(CC(=O)O)c1ccccc1)C(=O)c1cc2cc(C(=N)N)ccc2[nH]1 (configuration not stated) [3-{2-[(5-Carbamimidoyl-1H-indole-2-carbonyl)-methyl-amino]-acetylamino}-3-phenyl-propionic acid],25000,
"N=C(N)c1ccc2[nH]c(C(=O)NC(CC(=O)NC(CC(=O)O)c3ccccc3)C(F)(F)F)cc2c1 (configuration not stated) [3-{3-[(5-Carbamimidoyl-1H-indole-2-carbonyl)-amino]-4,4,4-trifluoro-butyrylamino}-3-phenyl-propionic acid]",50000,
N=C(N)c1ccc2[nH]c(C(=O)Nc3cccc(C(=O)NC(CC(=O)O)c4ccccc4)c3)cc2c1 (configuration not stated) [3-{3-[(5-Carbamimidoyl-1H-indole-2-carbonyl)-amino]-benzoylamino}-3-phenyl-propionic acid],25000,
CC(CC(=O)NC(CC(=O)O)c1ccccc1)NC(=O)c1cc2cc(C(=N)N)ccc2[nH]1 (configuration not stated) [3-{3-[(5-Carbamimidoyl-1H-indole-2-carbonyl)-amino]-butyrylamino}-3-phenyl-propionic acid],5000,
N=C(N)c1ccc2[nH]c(C(=O)NCCC(=O)NC(CC(=O)O)c3ccccc3)cc2c1 (configuration not stated) [3-{3-[(5-Carbamimidoyl-1H-indole-2-carbonyl)-amino]-propionylamino}-3-phenyl-propionic acid],8000,
CN(CCC(=O)NC(CC(=O)O)c1ccccc1)C(=O)c1cc2cc(C(=N)N)ccc2[nH]1 (configuration not stated) [3-{3-[(5-Carbamimidoyl-1H-indole-2-carbonyl)-methyl-amino]-propionylamino}-3-phenyl-propionic acid],5000,
"N=C(N)c1ccc2oc(C(=O)NCCC(=O)NC(CC(=O)O)c3ccc(F)c(F)c3)cc2c1 (configuration not stated) [3-{3-[(5-Carbamimidoyl-benzofuran-2-carbonyl)-amino]-propionylamino}-3-(3,4-difluoro-phenyl)-propionic acid]",500,
"N=C(N)c1ccc2oc(C(=O)NCCC(=O)NC(CC(=O)O)c3cc(F)cc(F)c3)cc2c1 (configuration not stated) [3-{3-[(5-Carbamimidoyl-benzofuran-2-carbonyl)-amino]-propionylamino}-3-(3,5-difluoro-phenyl)-propionic acid]",350,
N=C(N)c1ccc2oc(C(=O)NCCC(=O)NC(CCc3c[nH]c4ccccc34)CC(=O)O)cc2c1 (configuration not stated) [3-{3-[(5-Carbamimidoyl-benzofuran-2-carbonyl)-amino]-propionylamino}-5-(1H-indol-3-yl)-pentanoic acid],600,
N=C(N)c1ccc2c(C(=O)NCCC(=O)NC(CC(=O)O)c3ccccc3)[nH]nc2c1 (configuration not stated) [3-{3-[(6-Carbamimidoyl-1H-indazole-3-carbonyl)-amino]-propionylamino}-3-phenyl-propionic acid],630,
N=C(N)c1ccc2cc(C(=O)NCCC(=O)NC(CC(=O)O)c3ccccc3)[nH]c2c1 (configuration not stated) [3-{3-[(6-Carbamimidoyl-1H-indole-2-carbonyl)-amino]-propionylamino}-3-phenyl-propionic acid],1350,
N=C(N)c1ccc2c(C(=O)NCCC(=O)NC(CC(=O)O)c3ccccc3)c[nH]c2c1 (configuration not stated) [3-{3-[(6-Carbamimidoyl-1H-indole-3-carbonyl)-amino]-propionylamino}-3-phenyl-propionic acid],2200,
N=C(N)c1ccc2[nH]c(C(=O)N3CCC(C(=O)NC(CC(=O)O)c4ccccc4)CC3)cc2c1 (configuration not stated) [3-{[1-(5-Carbamimidoyl-1H-indole-2-carbonyl)-piperidine-4-carbonyl]-amino}-3-phenyl-propionic acid],25000,
"N=C(N)c1ccc2oc(C(=O)N3Cc4ccccc4CC3C(=O)NC(CC(=O)O)c3ccccc3)cc2c1 (configuration not stated) [3-{[2-(5-Carbamimidoyl-benzofuran-2-carbonyl)-1,2,3,4-tetrahydro-isoquinoline-3-carbonyl]-amino}-3-phenyl-propionic acid]",5000,
N=C(N)c1ccc2oc(C(=O)N3CCC[C@@H]3C(=O)NC(CC(=O)O)c3ccccc3)cc2c1 (stereo partly drawn) [3-{[(R)-1-(5-Carbamimidoyl-benzofuran-2-carbonyl)-pyrrolidine-2-carbonyl]-amino}-3-phenyl-propionic acid],2000,
N=C(N)c1ccc2[nH]c(C(=O)N3CCC[C@H]3C(=O)NC(CC(=O)O)c3ccccc3)cc2c1 (stereo partly drawn) [3-{[(S)-1-(5-Carbamimidoyl-1H-indole-2-carbonyl)-pyrrolidine-2-carbonyl]-amino}-3-phenyl-propionic acid],5000,
N=C(N)c1ccc2oc(C(=O)NCCC(=O)NC[C@H](NS(=O)(=O)c3ccc(I)cc3)C(=O)O)cc2c1 [(S)-3-{3-[(5-Carbamimidoyl-benzofuran-2-carbonyl)-amino]-propionylamino}-2-(4-iodo-benzenesulfonylamino)-propionic acid],,25
CN(C)c1cccc2c(S(=O)(=O)N[C@@H](CNC(=O)CCNC(=O)c3cc4cc(C(=N)N)ccc4o3)C(=O)O)cccc12 [(S)-3-{3-[(5-Carbamimidoyl-benzofuran-2-carbonyl)-amino]-propionylamino}-2-(5-dimethylamino-naphthalene-1-sulfonylamino)-propionic acid],,65

# More lines, now with the values ahead:
IC50 [1] [nM],IC50 [2] [nM],SMILES
53,,CCCCS(=O)(=O)NC(CNC(=O)CCNC(=O)c1[nH]nc2cc(C(=N)N)ccc12)C(=O)O (configuration not stated) [2-(Butane-1-sulfonylamino)-3-{3-[(6-carbamimidoyl-1H-indazole-3-carbonyl)-amino]-propionylamino}-propionic acid]
55,,CCCCS(=O)(=O)NC(CNC(=O)CCNC(=O)c1cc2ccc(C(=N)N)cc2[nH]1)C(=O)O (configuration not stated) [2-(Butane-1-sulfonylamino)-3-{3-[(6-carbamimidoyl-1H-indole-2-carbonyl)-amino]-propionylamino}-propionic acid]
300,,"N=C(N)c1ccc2oc(C(=O)NCCC(=O)NC(CC(=O)O)c3cc(F)ccc3F)cc2c1 (configuration not stated) [3-{3-[(5-Carbamimidoyl-benzofuran-2-carbonyl)-amino]-propionylamino}-3-(2,5-difluoro-phenyl)-propionic acid]"
300,,"COc1ccc(C(CC(=O)O)NC(=O)CCNC(=O)c2cc3cc(C(=N)N)ccc3o2)cc1OC (configuration not stated) [3-{3-[(5-Carbamimidoyl-benzofuran-2-carbonyl)-amino]-propionylamino}-3-(3,4-dimethoxy-phenyl)-propionic acid]"
250,,N=C(N)c1ccc2oc(C(=O)NCCC(=O)NC(CC(=O)O)c3ccccc3)cc2c1 (configuration not stated) [3-{3-[(5-Carbamimidoyl-benzofuran-2-carbonyl)-amino]-propionylamino}-3-phenyl-propionic acid]
200,,N=C(N)c1ccc2oc(C(=O)NCCC(=O)NC(CC(=O)O)c3cccnc3)cc2c1 (configuration not stated) [3-{3-[(5-Carbamimidoyl-benzofuran-2-carbonyl)-amino]-propionylamino}-3-pyridin-3-yl-propionic acid]
250,,"N=C(N)c1ccc2oc(C(=O)NCCC(=O)NC(CC(=O)O)C(F)(F)F)cc2c1 (configuration not stated) [3-{3-[(5-Carbamimidoyl-benzofuran-2-carbonyl)-amino]-propionylamino}-4,4,4-trifluoro-butyric acid]"
300,,C#CC(CC(=O)O)NC(=O)CCNC(=O)c1cc2cc(C(=N)N)ccc2o1 (configuration not stated) [3-{3-[(5-Carbamimidoyl-benzofuran-2-carbonyl)-amino]-propionylamino}-pent-4-ynoic acid]
250,,CN(CCC(=O)NC(CC(=O)O)c1ccccc1)C(=O)c1cc2cc(C(=N)N)ccc2o1 (configuration not stated) [3-{3-[(5-Carbamimidoyl-benzofuran-2-carbonyl)-methyl-amino]-propionylamino}-3-phenyl-propionic acid]
250,,N=C(N)c1ccc2oc(C(=O)N3CCCC(C(=O)NC(CC(=O)O)c4ccccc4)C3)cc2c1 (configuration not stated) [3-{[1-(5-Carbamimidoyl-benzofuran-2-carbonyl)-piperidine-3-carbonyl]-amino}-3-phenyl-propionic acid]
35,,CCCCS(=O)(=O)N[C@@H](CNC(=O)CCNC(=O)c1cc2cc(C(=N)N)ccc2o1)C(=O)O [(S)-2-(Butane-1-sulfonylamino)-3-{3-[(5-carbamimidoyl-benzofuran-2-carbonyl)-amino]-propionylamino}-propionic acid]
200,,N=C(N)c1ccc2oc(C(=O)NCCC(=O)NC[C@H](N)C(=O)O)cc2c1 [(S)-2-Amino-3-{3-[(5-carbamimidoyl-benzofuran-2-carbonyl)-amino]-propionylamino}-propionic acid]

# — BindingDB's records for doi:10.1021/jm9704863 (Cor Therapeutics, 1998)
